Laboratory results published in patent publication US8569578B1, “Generating transgenic potatoes with novel resistance to potato cyst nematodes by silencing nematode parasitism genes of CLE -1 and CLE-4s” (The United States of America, as represented by the …, priority 2009, dated 2013).
“Also recorded” adds a separate entry of the source.

Tests used:
Type in all cases: in vivo
[1] = system: Arabidopsis (Columbia-0) roots; assay: in vitro root assay with synthetic CLE peptides on Arabidopsis roots; conditions: 10 μM peptide in assay medium, compared with no peptide or Ag-16p
From the text: (§1) Mounting evidence supports that the conserved CLE motif represents the major functional domain of plant CLE proteins. Gr-CLE genes encode four different 12-aa CLE motifs (FIG. 1A). To examine the functional sufficiency of these nematode CLE motifs, we conducted in vitro root assays (Fiers et al. 2005) using synthetic dodecapeptides (GrCLE1-1-12p, GrCLE4-1-12p, GrCLE4-2-12p, and GrCLE4-3-12p) corresponding to the four CLE motifs of Gr-CLE proteins. A 16-aa peptide (Ag-16p) (Fiers et al. 2005) corresponding to the C-terminus of AGAMOUS that has no similarity with plant CLE motifs and a 12-aa CLV3 peptide (CLV3-12p) were used as negative and positive controls, respectively. In addition, several peptides, including a mutated GrCLE1-1 dodecapeptide (GrCLE1-1m-12p, with a Gly-to-Ala conversion as in clv3-1 and clv3-5 mutants), a 14-aa GrCLE1-1 peptide (GrCLE1-1-14p, with one additional N-terminal and one additional C-terminal residue compared to Gr-CLE1-1-12p), and three 13-aa peptides of GrCLE4-1-13p, GrCLE4-2-13p, and GrCLE4-3-13p (all contained an extra N-terminal lysine residue compared to the corresponding dodecapeptides), were synthesized and used in the in vitro root assays.
(§2) Peptides with a purity of >70% were synthesized (Sigma-Aldrich Corp., St. Louis, Mo., U.S.A) and dissolved in filter-sterilized 50 mM sodium phosphate buffer. Three Gr-CLE-1 related peptides were synthesized: GrCLE1-1-12p (12 aa, RVIPGGPDPLHN; SEQ ID NO: 12), GrCLE1-1m-12p (12 aa, RVIPGAPDPLHN; SEQ ID NO: 13, with a G-to-A conversion at position 6), and GrCLE1-1-14p (14 aa, KRVIPGGPDPLHNR; SEQ ID NO: 14). Six Gr-CLE-4 related peptides were synthesized: GrCLE4-1-12p (12 aa, RVAGAGPDPIHH; SEQ ID NO: 15), GrCLE4-1-13p (13 aa, KRVAGAGPDPIHH; SEQ ID NO: 16), GrCLE4-2-12p (12 aa, RAVPAGPDPKHH; SEQ ID NO: 17), GrCLE4-2-13p (13 aa, KRAVPAGPDPKHH; SEQ ID NO: 18), GrCLE4-3-12p (12 aa, RGAPAGPDP IHH; SEQ ID NO: 19), and GrCLE4-3-13p (13 aa, KRGAPAGPDPIHH; SEQ ID NO: 20). Positive and negative control peptides included CLV3-12p (12 aa, RTVPSGPDPLHH; SEQ ID NO: 21) and Ag-16p (16 aa, APNNHHYSSAGRQDQT; SEQ ID NO: 22) (Fiers et al., 2005).
(§3) For peptide treatments, seeds of wild-type Arabidopsis (Columbia-0) and potato, nonhost and host of G. rostochiensis, respectively, were surface-sterilized and plated on square plates (8-12 seeds per plate) containing the assay medium (Fiers et al. 2005, supra) with 10 μM of each peptide. Assay plates were placed vertically in a growth chamber and cultured at 23° C. for 16 h of light and 8 h of dark. The root length was measured from the base of the hypocotyl to the tip of the primary root at several time points after plating. Two independent experiments were conducted.

[2] = system: potato roots; assay: in vitro root assay with synthetic CLE peptides on potato roots; conditions: 10 μM peptide in assay medium, compared with no peptide or Ag-16p
From the text: as §1, §2, §3

[3] = system: potato hairy roots; assay: overexpression of Gr-CLE genes in potato hairy roots; conditions: measured at 4, 6, 8 and 10 days after dissecting; compared with vector control
From the text: To examine root meristems, primary root tips were excised from peptide treated Arabidopsis seedlings or from transgenic potato hairy roots and immediately mounted in water onto a glass slide. Roots were examined under an Olympus BX-50 microscope equipped with Nomarski optics and images were captured using a QImaging Retiga EXi digital CCD camera (QImaging, Surrey, BC, Canada). The root apical meristem (RAM) regions of individual primary roots that covered the distance from the position around the quiescent center to the position where elongated root cells immediately follow cytoplasm-dense meristematic cells were measured microscopically. The collected data were analyzed using the MetaMorph imaging analysis software (Universal Imaging Corporation, Downingtown, Pa., U.S.A.)
A. rhizogenes strain 15834 was transformed with individual transgene constructs of interest and used for the generation of potato hairy roots as described previously (Wang et al. 2007. Mol. Plant Pathol. 8:423-436) with some modifications. Potato stem pieces from tissue cultures were incubated with the transformed A. rhizogenes cell suspension for 10 mins, then transferred onto the callus induction medium containing 1×MS salts (Sigma-Aldrich), 26.7 μM Glycine, 4 μM Nicotinic Acid, 2.4 μM Pyridoxine HCL (Sigma-Aldrich), 1.2 μM Thiamine HCL (Sigma-Aldrich), 0.5 μM Folic Acid, 0.2 μM d-biotin (Sigma-Aldrich), 0.01% Myo-inositol (Acros, Morris Plains, N.J., U.S.A.), 3% sucrose, 0.001% 6-BAP (Sigma-Aldrich), 0.002% NAA (Sigma-Aldrich), and 1% agar and cultivated for four days at 24° C. without light. The infected stem pieces were then cultured on the propagation medium containing 1×MS salts, 1.2 mM NaH2PO4, 0.01% Myo-inositol, 0.1% Thiamine HCl, 3% sucrose, 1% agar, 50 μg/mL of kanamycin, and 238 μg/mL of timentin (GlaxoSmithKline). Timentin was used to inhibit the growth of A. rhizogenes 15834 and kanamycin was added to select for transformed roots. Approximately 12-15 days after root emergence, 1 cm-long root tips were dissected and cultured on vertical plates containing the propagation medium with 119 μg/mL of timentin and the root growth rate was measured at different time points.

Molecule | suppression of root growth (length of main root) [1] | suppression of root growth (length of main root) [2] | suppression of root growth (length of main root) ([1]; listed as Gr-CLE4-2-12p) | suppression of root growth (length of main root) ([2]; listed as Gr-CLE4-2-12p) | length of primary roots of transgenic potato hairy root lines [3]
KRAVPAGPDPKHH (LRAVPAGPDPLHH; listed as Globodera rostochiensis) [GrCLE4-2-13p, 13 aa peptide with extra N-terminal lysine] | did not show activities on root suppression | did not show activities on root suppression | – | – | –
KRVAGAGPDPIHH (LRVAGAGPDPIHH; listed as Globodera rostochiensis) [GrCLE4-1-13p, 13 aa peptide with extra N-terminal lysine] | did not show activities on root suppression | did not show activities on root suppression | – | – | –
RAVPAGPDPKHH (RAVPAGPDPLHH; listed as Globodera rostochiensis) [GrCLE4-2-12p, 12 aa Gr-CLE-4 related peptide] | significantly shorter | significantly shorter | suppressed root growth | suppressed root growth | –
RVAGAGPDPIHH (listed as Globodera rostochiensis) [GrCLE4-1-12p, 12 aa Gr-CLE-4 related peptide] | suppressed root growth; also recorded: significantly shorter | suppressed root growth; also recorded: significantly shorter | – | – | –
RGAPAGPDP IHH (RGAPAGPDPIHH; listed as Globodera rostochiensis) [GrCLE4-3-12p, 12 aa Gr-CLE-4 related peptide] | suppressed root growth; also recorded: significantly shorter | suppressed root growth; also recorded: significantly shorter | – | – | –
KRVIPGGPDPLHNR (listed as Globodera rostochiensis) [GrCLE1-1-14p, 14 aa GrCLE1-1 peptide withone additional N-terminal and C-terminal residue] | significantly shorter; also recorded: comparable level of root suppression activity as GrCLE1-1-12p | significantly shorter | – | – | –
KRGAPAGPDPIHH (LRGAPAGPDPIHH; listed as Globodera rostochiensis) [GrCLE4-3-13p, 13 aa peptide with extra N-terminal lysine] | did not show activities on root suppression | did not show activities on root suppression | – | – | –
RVIPGAPDPLHN (listed as Globodera rostochiensis) [GrCLE1-1m-12p, mutated GrCLE1-1 dodecapeptide with a G-to-A conversion at position 6] | significantly shorter | significantly shorter | – | – | –
Gr-CLE-4-D: G. rostochiensis CLE gene of class Gr-CLE-4, cDNA SEQ ID NO: 6 (nucleic acid, listed as Globodera rostochiensis) DNA: ATCATAATTTCCAAAATCCCAATAAAAGCTTCCTCAATAAAGTAAATATGGCCAAGAACGCAATGCTTTGCCTGCTAATTTTGAGCGTTGTTCTCGCTCTCGCATTTGCTACGAATAAAAAGGATGATGAAGAACCGGAGAACCATTCGACCGGCATTTTTGGAAAGGTCGGACGAGTTGTGACCGTGGCACTTGCGATGTCGTCTCGTCTGGGAGGGGCTAACGCAACCCGAGGAGGTGGAGCTGTATATGGAAGAAACTTGAAATCCAATCAATTGCCAAACAACAATTGGATGGCGCCACCTCCTCCAATGGCAATGAGAAGTGCCAAAGTCTATGATTCGAAACATTCTCCTGCTGAATATCTTAAAAAATTTGCTCAAGACTTTCGCCGAAAAACCGGCACGCACTCCCAGCGGCATCACGAAGAAACAACACTGGAACAGGAGAAGCGTGGAGCGCCAGCTGGGCCCGACCCAATACATCACCAAGATACAACATTTGAACAGGAGAAGCGTGGAGCGCCAGCTGGGCCCGACCCAATACATCACCAAGATACAACACTGGAACAGGAGAAGCGTGTAGCGGGAGCTGGGCCCGACCCAATACATCACCAAGATACAAAATTTGAACAGGAGAAGCGTGGAGCGCCAGCTGGGCCCGACCCAATACATCACTGATGCTCTTATTCACAATGCTAAAATATTTTAGACTATAGATAAATTGCTAGCAACAGATAAATGCCTATTCAT | – | – | – | – | short root phenotype
